Data reported in PubChem BioAssay (NCI).
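All cell lines were grown in 96-well plates and treated with compound for 48 hours. TGI marks complete inhibition of growth.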

Experiments:
Experiment in all cases: DTP human tumour cell line panel, 48 h
SF-539 CNS = system: SF-539 CNS
LOX IMVI melanoma = system: LOX IMVI melanoma
CAKI-1 renal = system: CAKI-1 renal
MALME-3M melanoma = system: MALME-3M melanoma
HT29 colon = system: HT29 colon
ACHN renal = system: ACHN renal
CCRF-CEM leukemia = system: CCRF-CEM leukemia
NCI-H23 lung = system: NCI-H23 lung
SK-MEL-28 melanoma = system: SK-MEL-28 melanoma
HCT-116 colon = system: HCT-116 colon
SN12C renal = system: SN12C renal
SK-MEL-2 melanoma = system: SK-MEL-2 melanoma
MCF7 breast = system: MCF7 breast
NCI-H226 lung = system: NCI-H226 lung
TK-10 renal = system: TK-10 renal
K-562 leukemia = system: K-562 leukemia
SK-OV-3 ovarian = system: SK-OV-3 ovarian
HCC-2998 colon = system: HCC-2998 colon
A498 renal = system: A498 renal
HL-60(TB) leukemia = system: HL-60(TB) leukemia
M14 melanoma = system: M14 melanoma
786-0 renal = system: 786-0 renal
IGROV1 ovarian = system: IGROV1 ovarian
SNB-75 CNS = system: SNB-75 CNS
NCI/ADR-RES ovarian = system: NCI/ADR-RES ovarian
COLO 205 colon = system: COLO 205 colon
RPMI-8226 leukemia = system: RPMI-8226 leukemia
UACC-62 melanoma = system: UACC-62 melanoma
OVCAR-4 ovarian = system: OVCAR-4 ovarian
UACC-257 melanoma = system: UACC-257 melanoma
MDA-N = system: MDA-N
U251 CNS = system: U251 CNS
OVCAR-3 ovarian = system: OVCAR-3 ovarian
A549 NSCLC = system: A549 NSCLC
HCT-15 colon = system: HCT-15 colon
MDA-MB-435 = system: MDA-MB-435
KM12 colon = system: KM12 colon
MOLT-4 leukemia = system: MOLT-4 leukemia
SF-295 CNS = system: SF-295 CNS
HOP-62 NSCLC = system: HOP-62 NSCLC
DU-145 prostate = system: DU-145 prostate
T-47D breast = system: T-47D breast
SW-620 colon = system: SW-620 colon
RXF 393 renal = system: RXF 393 renal
SF-268 CNS = system: SF-268 CNS
MDA-MB-231 breast = system: MDA-MB-231 breast
SK-MEL-5 melanoma = system: SK-MEL-5 melanoma
EKVX NSCLC = system: EKVX NSCLC
NCI-H460 lung = system: NCI-H460 lung
HS 578T breast = system: HS 578T breast
OVCAR-8 ovarian = system: OVCAR-8 ovarian
PC-3 prostate = system: PC-3 prostate
OVCAR-5 ovarian = system: OVCAR-5 ovarian
SNB-19 CNS = system: SNB-19 CNS
NCI-H522 lung = system: NCI-H522 lung

Structure (SMILES): Cc1ccccc1N=C(N)Nc1ccccc1C
- TGI (SF-539 CNS): > 100 µM
- TGI (LOX IMVI melanoma): > 100 µM
- TGI (CAKI-1 renal): > 100 µM
- TGI (MALME-3M melanoma): > 100 µM
- TGI (HT29 colon): > 100 µM
- TGI (ACHN renal): > 100 µM
- TGI (CCRF-CEM leukemia): > 100 µM
- TGI (NCI-H23 lung): > 100 µM
- TGI (SK-MEL-28 melanoma): > 100 µM
- TGI (HCT-116 colon): > 100 µM
- TGI (SN12C renal): > 100 µM
- TGI (SK-MEL-2 melanoma): > 100 µM
- TGI (MCF7 breast): > 100 µM
- TGI (NCI-H226 lung): > 100 µM
- TGI (TK-10 renal): > 100 µM
- TGI (K-562 leukemia): > 100 µM
- TGI (SK-OV-3 ovarian): > 100 µM
- TGI (HCC-2998 colon): 62.1 µM
- TGI (A498 renal): > 100 µM
- TGI (HL-60(TB) leukemia): > 100 µM
- TGI (M14 melanoma): > 100 µM
- TGI (786-0 renal): > 100 µM
- TGI (IGROV1 ovarian): > 100 µM
- TGI (SNB-75 CNS): > 100 µM
- TGI (NCI/ADR-RES ovarian): > 100 µM
- TGI (COLO 205 colon): > 100 µM
- TGI (RPMI-8226 leukemia): > 100 µM
- TGI (UACC-62 melanoma): > 100 µM
- TGI (OVCAR-4 ovarian): > 100 µM
- TGI (UACC-257 melanoma): > 100 µM
- TGI (MDA-N): > 100 µM
- TGI (U251 CNS): > 100 µM
- TGI (OVCAR-3 ovarian): > 100 µM
- TGI (A549 NSCLC): > 100 µM
- TGI (HCT-15 colon): > 100 µM
- TGI (MDA-MB-435): > 100 µM
- TGI (KM12 colon): > 100 µM
- TGI (MOLT-4 leukemia): > 100 µM
- TGI (SF-295 CNS): > 100 µM
- TGI (HOP-62 NSCLC): > 100 µM
- TGI (DU-145 prostate): > 100 µM
- TGI (T-47D breast): > 100 µM
- TGI (SW-620 colon): > 100 µM
- TGI (RXF 393 renal): > 100 µM
- TGI (SF-268 CNS): > 100 µM
- TGI (MDA-MB-231 breast): > 100 µM
- TGI (SK-MEL-5 melanoma): > 100 µM
- TGI (EKVX NSCLC): > 100 µM
- TGI (NCI-H460 lung): > 100 µM
- TGI (HS 578T breast): > 100 µM
- TGI (OVCAR-8 ovarian): > 100 µM
- TGI (PC-3 prostate): > 100 µM
- TGI (OVCAR-5 ovarian): > 100 µM
- TGI (SNB-19 CNS): > 100 µM
- TGI (NCI-H522 lung): > 100 µM
